The target in this assay is T1, Human TREM2 (Homo sapiens, UniProt Q9NZC2).
T1 construct: expressed in transfected cells
Description: Human TREM2 activity: cellular phosphorylation of Syk (AlphaLISA SureFire Ultra p-SYK) in HEK293/DAP12+TREM2 stable cell line. It is filed as cell-based. The method, boiled down: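 HEK293 cells stably co-expressing human TREM2 and DAP12 were seeded at 10,000 cells/well and used 20–24 h later. Compounds were tested at 8 concentrations (top 100 μM, 1:6 steps, 0.5% DMSO) for 30 min at 37 °C. Syk phosphorylation at Tyr525/526 was read in lysates by AlphaLISA SureFire Ultra.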

Where [1] appears, read: HEK293, maximal response relative to reference agonist example 1B (remaining examples), read-out: Emax.
The mark [2] stands for this setting: phospho-Syk AlphaLISA signal, HEK293/DAP12+TREM2 cells, concentration giving 50% of maximal response, read-out: EC50.

Molecules are shown by their SMILES. Where a name gives a salt, the structure may show the parent alone. Read-outs that look alike come from different tables or passages of the source. A value given as a limit tells only on which side of the number the result lay.

For orientation: Emax means the greatest response seen or fitted, relative to the assay's reference. In general, EC50 refers to the concentration at which the effect is half-maximal.

T1 sequence (Q9NZC2 19-230): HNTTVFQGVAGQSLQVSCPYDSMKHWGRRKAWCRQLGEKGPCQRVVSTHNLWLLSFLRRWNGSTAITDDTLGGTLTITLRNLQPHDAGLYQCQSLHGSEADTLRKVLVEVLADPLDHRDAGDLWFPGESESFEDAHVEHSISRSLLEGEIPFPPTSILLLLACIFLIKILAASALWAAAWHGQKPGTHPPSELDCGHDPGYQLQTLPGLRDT
T1 sequence (O43914 22-113 partner): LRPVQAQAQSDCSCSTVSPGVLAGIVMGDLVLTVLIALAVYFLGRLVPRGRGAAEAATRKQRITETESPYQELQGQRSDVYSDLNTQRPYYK

For `Cc1nc2c(-c3ccc(Cl)cc3F)nc(N3CC(c4cnn(C)c4)OC4(CC4)C3)c(F)c2c(=O)n1C` (centres unmarked) [Example 157, 8-(4-chloro-2-fluorophenyl)-5-fluoro-2,3-dimethyl-6-(5-(1-methyl-1H-pyrazol-4-yl)-4-oxa-7-azaspiro[2.5]octan-7-yl)pyrido[3,4-d]pyrimidin-4 (3H)-one], the Emax under setting [1] was under 75%. The EC50 under setting [2] was in the range of 100 to 1000 nM.

`Cc1nc2c(-c3ccc(C(F)(F)F)cc3F)nc(N3C[C@@H](c4cnn(C)c4)OC4(CC4)C3)cc2c(=O)n1C` (single isomer, unassigned) [Example 145A]: the Emax under setting [1] lay within 75 to 110%. The EC50 under setting [2] lay within 1 to 10 nM.

For the compound `Cc1nc2c(-c3ccc(C(F)(F)F)cc3F)nc(N3C[C@H](c4cnn(C)c4)OC(C)(C)C3)nc2c(=O)n1C` (single isomer, unassigned) [Example 100B], the Emax under setting [1] was under 75%. Also, under setting [2], the EC50 lay within 100 to 1000 nM.

For the compound `Cc1cc([C@H]2CN(c3cc4c(=O)n(C)c(C)nc4c(-c4ccc(Cl)cc4F)n3)CC(C)(C)O2)ccn1` (single isomer, unassigned) [Example 172B], the Emax under setting [1] was 75 to 110%. For the same compound, under setting [2], the EC50 fell in the range of 1 to 10 nM.

Take `Cc1nc2c(-c3cc(F)c(F)cc3F)nc([C@@H]3CCO[C@H](c4cnn(C5CC5)c4)C3)cc2c(=O)n1C` (single isomer, unassigned) [Example 139A]: the Emax under setting [1] was 75 to 110%. Under setting [2], the EC50 is 10 to 100 nM.

Consider `Cc1cc([C@H]2CN(c3nc(-c4ccc(F)cc4F)c4nc(C)n(C)c(=O)c4n3)C[C@@H](C)O2)ccn1` (single isomer, unassigned) [Example 175B], for which the Emax under setting [1] lay within 75 to 110%. The EC50 under setting [2] is 10 to 100 nM.

As for `Cc1nc2c(C3CCNCC3)nc(N3CCOC(c4cnn(C)c4)C3)nc2c(=O)n1C` (centres unmarked) [Example 87, 2,3-dimethyl-6-(2-(1-methyl-1H-pyrazol-4-yl)morpholino)-8-(piperidin-4-yl)pyrimido[5,4-d]pyrimidin-4 (3H)-one], the Emax under setting [1] fell in the range of 75 to 110%. For the same compound, the EC50 under setting [2] was over 1000 nM.

`Cn1cc([C@H]2CN(c3nc(-c4ccc(Cl)cc4F)c4nc(C(F)(F)F)n(C)c(=O)c4n3)CCO2)cn1` (single isomer, unassigned) [Example 103]: the Emax under setting [1] was in the range of 75 to 110%. The EC50 under setting [2] fell in the range of 1 to 10 nM.

On to `Cc1nc2c(-c3ccc(C(F)(F)F)nc3)nc(N3CCC(F)(F)[C@H](c4cnn(C)c4)C3)nc2c(=O)n1C` (single isomer, unassigned) [Example 92], for which the Emax under setting [1] is under 75%. For the same compound, under setting [2], the EC50 was 10 to 100 nM.

In the case of `Cc1nc2c(-c3ccc(Cl)cc3F)nc(C3CCOC(c4cnn(C)c4)C3)nc2c(=O)n1C` (centres unmarked) [Example 17, 8-(4-chloro-2-fluorophenyl)-2,3-dimethyl-6-(2-(1-methyl-1H-pyrazol-4-yl)tetrahydro-2H-pyran-4-yl)pyrimido[5,4-d]pyrimidin-4 (3H)-one], the maximum response (Emax) under setting [1] was 75 to 110%. In addition, the EC50 under setting [2] lay in the range of 100 to 1000 nM.

On to `Cc1nc2c(-c3ccc(Cl)cc3F)nc(N3C[C@@H](C)O[C@@H](c4cnn(C5CC5)c4)C3)nc2c(=O)n1C` (single isomer, unassigned) [Example 178B], for which the Emax under setting [1] is 75 to 110%. Besides, the EC50 under setting [2] was in the range of 1 to 10 nM.

For the compound `Cc1nc2c(-c3ccc(Cl)cc3F)nc(N3C[C@@H](c4cnn(C)c4)OC4(CC4)C3)nc2c(=O)n1C` (single isomer, unassigned) [Example 108A], under setting [1], the Emax is 75 to 110%. The EC50 under setting [2] is 1 to 10 nM.

`Cc1nc2c(-c3ccc(Cl)cc3F)nc(N3CCCC(N4CC(F)(F)C4)C3)nc2c(=O)n1C` (centres unmarked) [Example 80, 8-(4-chloro-2-fluorophenyl)-6-(3-(3,3-difluoroazetidin-1-yl)piperidin-1-yl)-2,3-dimethylpyrimido[5,4-d]pyrimidin-4 (3H)-one]: under setting [1], the Emax is under 75%. Besides, the EC50 under setting [2] was over 1000 nM.

In the case of `Cc1cc([C@@H]2CN(c3nc(-c4ccc(F)cc4F)c4nc(C)n(C)c(=O)c4n3)CCO2)ccn1` (single isomer, unassigned) [Example 122A], under setting [1], the Emax fell in the range of 75 to 110%. Besides, the EC50 under setting [2] lay within 1 to 10 nM.

`Cc1nc2c(-c3ccc(Cl)cc3F)nc(N3CCOC(C)(C)C3)nc2c(=O)n1C` [Example 57, 8-(4-chloro-2-fluorophenyl)-6-(2,2-dimethylmorpholino)-2,3-dimethylpyrimido[5,4-d]pyrimidin-4(3H)-one]: under setting [1], the maximum response (Emax) is under 75%. In addition, the EC50 under setting [2] was over 1000 nM.

`Cc1nc2c(-c3ccc(C(F)(F)F)nc3)nc(N3CCOC(c4cnn(C5CC5)c4)C3)nc2c(=O)n1C` (racemic) [Example 19, 6-(2-(1-cyclopropyl-1H-pyrazol-4-yl)morpholino)-2,3-dimethyl-8-(6-(trifluoromethyl)pyridin-3-yl)pyrimido[5,4-d]pyrimidin-4 (3H)-one]: under setting [1], the Emax was under 75%. The EC50 under setting [2] lay within 10 to 100 nM.

Consider `Cc1cc([C@@H]2CN(c3cc4c(=O)n(C)c(C)nc4c(-c4ccc(Cl)cc4F)n3)CCO2)ccn1` (single isomer, unassigned) [Example 135A], for which the Emax under setting [1] fell in the range of 75 to 110%. Further, under setting [2], the EC50 is 1 to 10 nM.

On to `Cc1nc2c(-c3ccc(Cl)cc3F)nc(N3CCOC(c4cnn(C5CNC5)c4)C3)nc2c(=O)n1C` (centres unmarked) [Example 41, 6-(2-(1-(azetidin-3-yl)-1H-pyrazol-4-yl)morpholino)-8-(4-chloro-2-fluorophenyl)-2,3-dimethylpyrimido[5,4-d]pyrimidin-4 (3H)-one hydrochloride salt], for which the Emax under setting [1] was in the range of 75 to 110%. The EC50 under setting [2] is 100 to 1000 nM.

For `Cc1nc2c(-c3ccc(Cl)cc3F)nc(N3CCO[C@H](c4cnn(C5CC5)c4)C3)cc2c(=O)n1C` (single isomer, unassigned) [Example 131A], under setting [1], the Emax lay within 75 to 110%. Besides, the half-maximal effective concentration (EC50) under setting [2] was 1 to 10 nM.

Under “HEK293”, `Cc1nc2c(-c3ccc(Cl)cc3F)nc([C@@H]3CCO[C@H](c4cnn(C5CC5)c4)C3)cc2c(=O)n1C` (single isomer, unassigned) [Example 140A] had an Emax of under 75%. Further, under setting [2], the EC50 lay in the range of 100 to 1000 nM.

For `Cc1nc2c(-c3ccc(Cl)cc3F)nc([C@@H]3C[C@@H]3c3cnn(C)c3)cc2c(=O)n1C` (single isomer, unassigned) [Example 148A], the Emax under setting [1] is under 75%. Besides, the EC50 under setting [2] was over 1000 nM.

In the case of `Cc1nc2c(-c3ccc(Cl)cc3F)nc(N3CCOC(c4cnn(C)n4)C3)nc2c(=O)n1C` (centres unmarked) [Example 91, 8-(4-chloro-2-fluorophenyl)-2,3-dimethyl-6-(2-(2-methyl-2H-1,2,3-triazol-4-yl)morpholino)pyrimido[5,4-d]pyrimidin-4 (3H)-one], the Emax under setting [1] was in the range of 75 to 110%. Besides, the EC50 under setting [2] lay within 1 to 10 nM.

On to `Cn1cc([C@H]2CN(c3nc(-c4ccc(F)cc4F)c4nc(C(F)(F)F)n(C)c(=O)c4n3)CC3(CC3)O2)cn1` (single isomer, unassigned) [Example 165B], for which, under setting [1], the Emax lay within 75 to 110%. Also, the EC50 under setting [2] lay within 10 to 100 nM.

As to `Cc1cc([C@@H]2CN(c3cc4c(=O)n(C)c(C)nc4c(-c4ccc(C(F)(F)F)nc4)n3)CCO2)ccn1` (single isomer, unassigned) [Example 138A], the Emax under setting [1] was over 110%. Moreover, the EC50 under setting [2] lay in the range of 10 to 100 nM.

With `Cc1ncc(C2CN(c3nc(-c4ccc(Cl)cc4F)c4nc(C)n(C)c(=O)c4n3)CCO2)cn1` (centres unmarked) [Example 35, 8-(4-chloro-2-fluorophenyl)-2,3-dimethyl-6-(2-(2-methylpyrimidin-5-yl)morpholino)pyrimido[5,4-d]pyrimidin-4 (3H)-one], the EC50 was in the range of 10 to 100 nM. Besides, the Emax result (maximal response relative to reference agonist example 1B (remaining examples)) was “+ (<75%)”.

The values are drawn from patent US20260200926A1, “TREM2 MODULATORS” (Muna Therapeutics ApS, priority 2022, published 2026).
